Measurements taken from US20210046085A1, “TREATMENT OF ADVANCED ESTROGEN RECEPTOR POSITIVE BREAST CANCER” (Pantarhei Oncology B.V., priority 2018, published 2021).
Where two headings read alike, the source gives them in different places. Values belong to the compound of their own block, whether it stands above or below them.

Columns and labels:
SHBG = target: T1, SHBG (Homo sapiens, UniProt P04278); settings: cited from earlier work
T1 sequence (P04278 30-402): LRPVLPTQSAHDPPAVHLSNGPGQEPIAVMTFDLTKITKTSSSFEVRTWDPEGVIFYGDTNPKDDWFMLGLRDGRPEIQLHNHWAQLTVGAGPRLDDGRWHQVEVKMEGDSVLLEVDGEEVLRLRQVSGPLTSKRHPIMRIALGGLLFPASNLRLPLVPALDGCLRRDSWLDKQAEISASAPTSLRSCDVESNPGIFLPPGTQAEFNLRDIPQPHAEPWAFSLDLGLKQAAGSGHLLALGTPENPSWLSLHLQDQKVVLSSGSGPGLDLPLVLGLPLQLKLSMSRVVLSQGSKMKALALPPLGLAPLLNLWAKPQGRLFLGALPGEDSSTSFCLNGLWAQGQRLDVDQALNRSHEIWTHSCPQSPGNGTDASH

[1] = system: long term estrogen deprived MCF7 breast cancer cells (LTED cells); test: Cell count in long term estrogen deprived MCF7 breast cancer cells (LTED cells); assay type: cell-based, human; settings: for Cell number per well: cell count on Day 7
Procedure: LTED cells were plated in 6-well plates at a density of 30,000 cells per well. The cells were maintained in phenol red free IMEM with 5% charcoal stripped FBS (DCC-FBS). On Day 3, the medium was replaced with fresh phenol red free IMEM with 5% DCC-FBS. […] The final vehicle concentration was 0.1% ethanol for all experiments. Each treatment was done in duplicate.
On Day 5, the medium was changed and on Day 7 plates were subjected to a cell count analysis.

[2] = Single dose pharmacokinetics study of oral estriol in postmenopausal women; assay type: in vivo, human; settings: for concentration at 24 h / concentration at 48 h / concentration at 72 h: female, human, plasma, read-out: Average plasma level; for Average plasma level: 0-24 hours
Procedure: A single dose pharmacokinetics study was conducted to evaluate the pharmacokinetics of different oral dosages of estriol in postmenopausal women. In total 16 women were assigned to two different groups (Cohort A and Cohort B). Each Cohort received two estriol treatments. […] A wash-out period of 7 days was taken into account between the treatments.

[3] = cited from earlier work
[4] = cited from earlier work; remark: listed apart in the source
[5] = single oral dose of 12 mg, postmenopausal women, cited from earlier work
T-47D cells = settings: and higher (288 pg/ml); cited from earlier work
MCF-7 cells = settings: and higher (288 pg/ml); cited from earlier work
[6] = system: estrogen response element (ERE); settings: breast cancer cells; cited from earlier work

Structure (SMILES): C[C@]12CC[C@@H]3c4ccc(O)cc4CC[C@H]3[C@@H]1CC[C@@H]2O [estradiol, 17beta-estradiol]
- Binding to SHBG (SHBG; Hammond GL et al., Climacteric 2008): about 40%

- concentration at 24 h ([2]; oral dose 5 mg): 0.017 ± 0.011 ng/mL
- concentration at 48 h ([2]; oral dose 5 mg): 0.011 ± 0.015 ng/mL
- concentration at 72 h ([2]; oral dose 5 mg): 0.002 ± 0.006 ng/mL
- concentration at 24 h ([2]; oral dose 10 mg): 0.047 ± 0.067 ng/mL
- concentration at 48 h ([2]; oral dose 10 mg): 0.012 ± 0.015 ng/mL
- concentration at 72 h ([2]; oral dose 10 mg): 0.001 ± 0.002 ng/mL
- concentration at 24 h ([2]; oral dose 20 mg): 0.064 ± 0.041 ng/mL
- concentration at 48 h ([2]; oral dose 20 mg): 0.03 ± 0.01 ng/mL
- concentration at 72 h ([2]; oral dose 20 mg): 0.008 ± 0.012 ng/mL
- concentration at 24 h ([2]; oral dose 40 mg): 0.121 ± 0.113 ng/mL
- concentration at 48 h ([2]; oral dose 40 mg): 0.052 ± 0.014 ng/mL
- concentration at 72 h ([2]; oral dose 40 mg): 0.013 ± 0.008 ng/mL
- Plasma levels of estriol after 72 hours ([2]; oral administration of 20 mg or 40 mg estriol): still significant after 72 hours
- Plasma levels of estriol over 24 hours ([2]; oral administration of estriol 5-40 mg): remained fairly constant over 24 hours
- Average plasma level ([2]; oral dose 5 mg): 28 pg/mL
- Average plasma level ([2]; oral dose 10 mg): 39 pg/mL
- Average plasma level ([2]; oral dose 20 mg): 103 pg/mL
- Average plasma level ([2]; oral dose 40 mg): 110 pg/mL
- Time of second increase after dosing (enterohepatic circulation) ([2]; single oral dose 5-40 mg): 4 to 6 h
- Time of peak levels after dosing ([2]; single oral dose 5-40 mg, approximately): 1 to 2 h
Structure (SMILES): C[C@]12CC[C@@H]3c4ccc(O)cc4CC[C@H]3[C@@H]1C[C@@H](O)[C@@H]2O [estriol, estra-1,3,5(10)-triene-3,16α,17β-triol]
- Growth of LTED cells (result in words) [1]: able to inhibit the growth of LTED cells
- Cell number per well ([1]; 10^−5 M estriol): 0.11 ×10^6
- Cell number per well ([1]; 10^−6 M estriol): 0.18 ×10^6
- Cell number per well ([1]; 10^−7 M estriol): 0.21 ×10^6
- Cell number per well ([1]; 10^−8 M estriol): 0.22 ×10^6
- Cell number per well ([1]; 10^−9 M estriol): 0.26 ×10^6
- Cell number per well ([1]; 10^−10 M estriol): 0.56 ×10^6
- Cell number per well ([1]; 10^−11 M estriol): 0.92 ×10^6
- Cell number per well ([1]; 10^−12 M estriol): 1.17 ×10^6
- Concentration at which peak inhibition is observed ([1]; no significant further inhibition at higher concentrations): 10^−9 M
- Tolerability ([2]; high oral dose levels, postmenopausal women): well tolerated
- Plasma levels of estriol late after dosing ([2]; single oral dose 5-40 mg): still measurable up to 72 hrs post dosing
- Half-life after oral administration ([3]; Maturitas (1990), 12:171-197): 9 to 10 h
- Half-life after oral administration ([3]; Summary of Product Characteristics of Synapause): 1.5 h
- Conjugated in the intestine to glucuronides ([3]; oral administration): 80-90%
- Conjugated in the intestine to sulfates ([3]; oral administration): 10-20%
- Fraction that reaches the circulation ([3]; oral administration): 1-2%
- Peak levels ([4]; oral administration of 6 mg estriol): 80 to 220 pg/mL
- Peak levels ([4]; oral administration of 12 mg): 150 to 490 pg/mL
- Initial increase in estriol levels ([5]; conversion of pmol/L value): 144 to 288 pg/mL
- Initial increase in estriol levels ([5]; lasted about four hours): 500 to 1000 pmol/L
- Concentration exerting a mitogenic effect (T-47D cells): ≥ 10^−9 M
- Concentration exerting a mitogenic effect (MCF-7 cells): ≥ 10^−9 M
- Concentration at which effects on ERE activation were visible [6]: 10^−10 M
- Binding to SHBG (SHBG): does not bind to SHBG
